Here are results for 5 compounds from patent US20230242582A1, “NOVEL ALPHA-HELICAL DOUBLE-SIDED CELL PENETRATING PEPTIDE AND USE THEREOF” (CAMP THERAPEUTICS INC., priority 2020, published 2023).

A word on the IC50: it is the concentration at which inhibition is half-maximal.

Read-outs that look alike come from different tables or passages of the source. Residues, ends and D or L forms follow the SMILES beside them.

In test [1] the test system is MDA-MB-231. Description: IC50 of MTX in cell line MDA-MB-231. It is filed as cell-based. The following applies: Homo sapiens.
For test [2], the system named is MDA-MB-231 cells. Kind of test: Cytotoxicity of MTX-bound peptide, WST-1 assay. It is filed as cell-based. Here is the method:
(§1) Specifically, HeLa cells were cultured in DMEM at a condition of 37° C. with 5% CO2. The cells were respectively cultured in a cell culture plate, and then removed with trypsin. The cells were seeded at 1×10^4 cells per well in a 96-well plate. After 24 hours, the peptide was added to the media, and culture was performed again at a condition of 37° C. with 5% CO2 for 24 hours. 10 uL of WST-1 reagent was added per well, and reaction was allowed to proceed for 30 minutes at a condition of 37° C. with 5% CO2. Then, UV absorbance was measured at 450/700 nm with a 96-well plate reader.
In order to identify a drug delivery effect of a peptide, a peptide in which methotrexate (MTX) is bound to the N-terminus of one monomer of a dimer was synthesized according to a known method (Kim et al. Biomacromolecules 2016).
MDA-MB-231 cells were seeded in a 96-well plate at a density of 2.5×10^3 cells/well, and treated with the MTX-bound peptide for 48 hours starting from the next day.
In general terms: Tetrazolium dyes change colour on reduction, which living cells bring about.

Test [3] relates to NIH-3T3. Description: IC50 of MTX in cell line NIH-3T3. The following applies: Mus musculus, NIH3T3. Type of test: cell-based.
For test [4], the system named is HeLa. Description: IC50 of MTX in cell line HeLa. It is filed as cell-based. The conditions noted are these: Homo sapiens.
In test [5] the test system is HeLa cells. Description: Cell-penetrating ability of fluorescently labeled dimeric peptides, flow cytometry. Type of test: cell-based, human. The following applies: at 62.5 nM, FIG. 6A. Here is the method: During preparation of CPPs in dimeric form shown in Tables 1 to 3, one monomer thereof was prepared in a form where 5-TAMRA fluorescence was attached to the N-terminus, instead of acetyl. A monomer with acetyl and a monomer with 5-TAMRA fluorescence were mixed in a molar ratio of 1:1, and subjected to an oxidation condition in air to produce a dimeric form in which only one fluorescence was labeled per dimer molecule. Then, cell-penetrating ability of each dimer was identified. Each fluorescently labeled peptide was used to treat HeLa cells (5×10^4 cells/well), which are human-derived cells, and a ratio of the number of cells with fluorescence to the total number of cells was obtained through flow cytometry.
FIGS. 4B to 4D illustrate results obtained by treating cells with respective dimers at the same concentration (62.5 nM), measuring fluorescence intensity of the cells by flow cytometry, and relatively comparing the fluorescence intensity.
Based on cell-penetrating ability and cytotoxicity of the dimeric peptides of the present disclosure, correlation therebetween was identified. Cytotoxicity (IC50^−1) and cell-penetrating ability of the respective peptides were identified at 62.5 nM according to the methods described in Examples 5 and 6, and then graphically represented.
Background: In flow cytometry, cells or beads pass a laser one at a time.

Test [6] relates to HeLa cells. Description: Cytotoxicity of dimeric peptides, WST-1 assay. The conditions noted are these: for ratio: IC50 relative to LK-3, HeLa cells. Type of test: cell-based, human. Here is the method: Cytotoxicity was identified using WST-1 assay by treating HeLa cells with peptides in a 96-well plate (1×10^4 cells/well) for 24 hours.
as §1

Test [7] relates to IL-2. Description: Decrease of extracellularly secreted IL-2 in Jurkat cells, ELISA. It is filed as cell-based. The following applies: CsA complex with diLR10 versus CsA only. Here is the method:
The hydrophobic drug cyclosporine (CsA) was mixed with a peptide and incubated at room temperature for 20 minutes to create a complex with the hydrophobic drug. Then, Jurkat cells (1.0×10^4 cells/well) were treated with the complex for 4.5 hours. An amount of extracellularly secreted IL-2 was measured by an ELISA method to identify, through IC50 values, whether an anti-inflammatory effect caused by CsA, which corresponded to a relative decrease in IL-2, was enhanced by the cell-penetrating peptide diLR10.
On the technique in general: In an ELISA, binding on a coated surface is turned into a signal by an enzyme label.

A short description of test [8]: Intracellular delivery of CsA with fluorescence by non-covalent bonding with peptide. It is filed as cell-based. The following applies: FIG. 8. The source says:
For the peptides with various compositions of lysine and arginine, their intracellular delivery by non-covalent bonding with CsA was identified using CsA with fluorescence.

As for `CN(Cc1cnc2nc(N)nc(N)c2n1)c1ccc(C(=O)N[C@@H](CCC(=O)O)C(=O)O)cc1` [MTX, methotrexate], the IC50 in test [1] is 970 nM; in test [2] (Homo sapiens, 48 hours, MTX bound to N-terminus of one monomer of the dimer, MTX column = MTX alone, read-out: IC50 of MTX-bound peptide) it was 972 nM; in test [3] it was 37 nM; in test [4], ~31 nM.

On to `CC[C@H](C)[C@H](NC(C)=O)C(=O)N[C@H]1CSSC[C@@H](C(=O)N[C@@H](CCCNC(=N)N)C(N)=O)NC(=O)[C@H]([C@@H](C)CC)NC(=O)[C@H](CCCNC(=N)N)NC(=O)[C@H](CCCNC(=N)N)NC(=O)[C@H]([C@@H](C)CC)NC(=O)[C@H]([C@@H](C)CC)NC(=O)[C@H](CCCNC(=N)N)NC(=O)[C@@H](NC(=O)[C@@H](NC(C)=O)[C@@H](C)CC)CSSC[C@@H](C(=O)N[C@@H](CCCNC(=N)N)C(N)=O)NC(=O)[C@H]([C@@H](C)CC)NC(=O)[C@H](CCCNC(=N)N)NC(=O)[C@H](CCCNC(=N)N)NC(=O)[C@H]([C@@H](C)CC)NC(=O)[C@H]([C@@H](C)CC)NC(=O)[C@H](CCCNC(=N)N)NC1=O` [diIR10] (HELM PEPTIDE1{[ac].I.C.R.I.I.R.R.I.C.R.[am]}|PEPTIDE2{[ac].I.C.R.I.I.R.R.I.C.R.[am]}$PEPTIDE1,PEPTIDE2,3:R3-10:R3|PEPTIDE1,PEPTIDE2,10:R3-3:R3$$$V2.0; bridges inferred), for which the “ratio of cell-penetrating ability to cytotoxicity (IC50^−1)” value in test [5] was “low toxicity as compared with cell-penetrating ability”. In test [6], the ratio is 3.24.

Regarding `CC(=O)N[C@@H](CC(C)C)C(=O)N[C@H]1CSSC[C@@H](C(=O)N[C@@H](CCCCN)C(N)=O)NC(=O)[C@H](CC(C)C)NC(=O)[C@H](CCCCN)NC(=O)[C@H](CCCCN)NC(=O)[C@H](CC(C)C)NC(=O)[C@H](CC(C)C)NC(=O)[C@H](CCCCN)NC(=O)[C@@H](NC(=O)[C@H](CC(C)C)NC(C)=O)CSSC[C@@H](C(=O)N[C@@H](CCCCN)C(N)=O)NC(=O)[C@H](CC(C)C)NC(=O)[C@H](CCCCN)NC(=O)[C@H](CCCCN)NC(=O)[C@H](CC(C)C)NC(=O)[C@H](CC(C)C)NC(=O)[C@H](CCCCN)NC1=O` [diLK10] (HELM PEPTIDE1{[ac].L.C.K.L.L.K.K.L.C.K.[am]}|PEPTIDE2{[ac].L.C.K.L.L.K.K.L.C.K.[am]}$PEPTIDE1,PEPTIDE2,3:R3-10:R3|PEPTIDE1,PEPTIDE2,10:R3-3:R3$$$V2.0), the IC50 is 45.9 nM in test [2] (48 hours, MTX bound to N-terminus of one monomer of the dimer, MTX column = MTX alone, read-out: IC50 of MTX-bound peptide); ~13700 nM in test [2] (peptide itself, without MTX, read-out: IC50); 12400 nM in test [6] (HeLa cells, WST-1, peptide treatment 24 hours). The ratio in test [6] is recorded as 2.79.

Take `CC(=O)N[C@@H](CC(C)C)C(=O)N[C@H]1CSSC[C@@H](C(=O)N[C@@H](CCCNC(=N)N)C(N)=O)NC(=O)[C@H](CC(C)C)NC(=O)[C@H](CCCNC(=N)N)NC(=O)[C@H](CCCNC(=N)N)NC(=O)[C@H](CC(C)C)NC(=O)[C@H](CC(C)C)NC(=O)[C@H](CCCNC(=N)N)NC(=O)[C@@H](NC(=O)[C@H](CC(C)C)NC(C)=O)CSSC[C@@H](C(=O)N[C@@H](CCCNC(=N)N)C(N)=O)NC(=O)[C@H](CC(C)C)NC(=O)[C@H](CCCNC(=N)N)NC(=O)[C@H](CCCNC(=N)N)NC(=O)[C@H](CC(C)C)NC(=O)[C@H](CC(C)C)NC(=O)[C@H](CCCNC(=N)N)NC1=O` [diLR10] (HELM PEPTIDE1{[ac].L.C.R.L.L.R.R.L.C.R.[am]}|PEPTIDE2{[ac].L.C.R.L.L.R.R.L.C.R.[am]}$PEPTIDE1,PEPTIDE2,3:R3-10:R3|PEPTIDE1,PEPTIDE2,10:R3-3:R3$$$V2.0; bridges inferred): the “ratio of cell-penetrating ability to cytotoxicity (IC50^−1)” value in test [5] is “low toxicity as compared with cell-penetrating ability”. Moreover, in test [7], the “decrease of IC50 value” is listed as 21%. In addition, in test [6] (HeLa cells), the “increase in IC50 value as compared with LK-3” value is reported as “about 5 fold”. Besides, in test [6], the ratio is on record as 4.26.

For the compound “diLR10^R3K: dimer of monomer LR10^R3K, Ac-LCKLLRRLCR-NH2 (SEQ ID NO 30) (also: dimer of two monomers linked by interchain disulfide bonds)”, the “intracellular delivery ability for CsA” value in test [8] was “best intracellular delivery ability for CsA”.
